The values that follow come from paper PMC5218480 (PLoS ONE, 2017).

In this assay the test system is MV-4-11 cells. Nature of the assay: Gene expression microarray analysis (Affymetrix PrimeView) and GSEA. The assay is classed as cell-based, human. Also noted: RFU PODN (11730768_x_at) / Fold change /veh PODN (11730768_x_at) / RFU LINC00158 (11744669_a_at) / Fold change /veh LINC00158 (11744669_a_at) / RFU DUSP10 (11751237_a_at) / Fold change /veh DUSP10 (11751237_a_at) / RFU ID3 (11757404_x_at) / Fold change /veh ID3 (11757404_x_at) / RFU PLEKHG5 (11737974_s_at) / Fold change /veh PLEKHG5 (11737974_s_at) / RFU LRRC4B (11730491_at) / Fold change /veh LRRC4B (11730491_at) / RFU GIMAP4 (11747438_a_at) / Fold change /veh GIMAP4 (11747438_a_at) / RFU KRT8 (11758183_x_at) / Fold change /veh KRT8 (11758183_x_at) / RFU CNN1 (11734310_a_at) / Fold change /veh CNN1 (11734310_a_at) / RFU VPS37D (11726825_at) / Fold change /veh VPS37D (11726825_at) / RFU C10orf10 (11716522_x_at) / Fold change /veh C10orf10 (11716522_x_at) / RFU KIR2DL2 /// KIR2DL4 /// KIR2DL5A /// KIR2DL5B /// KIR2DS1 /// KIR2DS2 /// KIR2DS3 /// KIR2DS4 /// KIR3DL3 /// KIR3DL3 /// KIR3DS1 (11738374_at) / Fold change /veh KIR2DL2 /// KIR2DL4 /// KIR2DL5A /// KIR2DL5B /// KIR2DS1 /// KIR2DS2 /// KIR2DS3 /// KIR2DS4 /// KIR3DL3 /// KIR3DL3 /// KIR3DS1 (11738374_at) / RFU C1QL1 (11718748_at) / Fold change /veh C1QL1 (11718748_at) / RFU TMPRSS4 (11747572_a_at) / Fold change /veh TMPRSS4 (11747572_a_at) / RFU HAMP (11756126_x_at) / Fold change /veh HAMP (11756126_x_at) / RFU RNFT2 (11725882_a_at) / Fold change /veh RNFT2 (11725882_a_at) / RFU NR4A2 (11747474_a_at) / Fold change /veh NR4A2 (11747474_a_at) / RFU ABCC12 (11746883_a_at) / Fold change /veh ABCC12 (11746883_a_at) / RFU TMEM136 (11760407_x_at) / Fold change /veh TMEM136 (11760407_x_at) / RFU CLDN22 /// WWC2 (11732394_at) / Fold change /veh CLDN22 /// WWC2 (11732394_at) / RFU HLA-DPB1 (11760878_x_at) / Fold change /veh HLA-DPB1 (11760878_x_at) / RFU SPINT1 (11716480_a_at) / Fold change /veh SPINT1 (11716480_a_at) / RFU GAP43 (11754022_s_at) / Fold change /veh GAP43 (11754022_s_at) / RFU A4GNT (11735810_at) / Fold change /veh A4GNT (11735810_at) / RFU PRB3 (11715151_x_at) / Fold change /veh PRB3 (11715151_x_at) / RFU TUBB4B (11761932_at) / Fold change /veh TUBB4B (11761932_at) / RFU CAPN14 (11732068_a_at) / Fold change /veh CAPN14 (11732068_a_at) / RFU TMCC2 (11721928_a_at) / Fold change /veh TMCC2 (11721928_a_at) / RFU IRGQ (11745062_a_at) / Fold change /veh IRGQ (11745062_a_at) / RFU FAM174B (11720279_a_at) / Fold change /veh FAM174B (11720279_a_at) / RFU TMPRSS4 (11748680_a_at) / Fold change /veh TMPRSS4 (11748680_a_at) / RFU FAM212B (11763350_a_at) / Fold change /veh FAM212B (11763350_a_at) / RFU PLEKHG5 (11743358_a_at) / Fold change /veh PLEKHG5 (11743358_a_at) / RFU ZSCAN30 (11745921_a_at) / Fold change /veh ZSCAN30 (11745921_a_at) / RFU CMKLR1 (11741424_a_at) / Fold change /veh CMKLR1 (11741424_a_at) / RFU LOC101060620 /// MAPK8IP1 (11723275_at) / Fold change /veh LOC101060620 /// MAPK8IP1 (11723275_at) / RFU SPTSSB (11747773_x_at) / Fold change /veh SPTSSB (11747773_x_at) / RFU PRSS12 (11739890_at) / Fold change /veh PRSS12 (11739890_at) / RFU BIN1 (11741810_x_at) / Fold change /veh BIN1 (11741810_x_at) / RFU WNT11 (11732464_a_at) / Fold change /veh WNT11 (11732464_a_at) / RFU C10orf10 (11716521_a_at) / Fold change /veh C10orf10 (11716521_a_at) / RFU C5orf56 (11738089_at) / Fold change /veh C5orf56 (11738089_at) / RFU CYB561 (11721691_x_at) / Fold change /veh CYB561 (11721691_x_at) / RFU ANKRD19P (11752326_a_at) / Fold change /veh ANKRD19P (11752326_a_at) / RFU OR2T12 /// OR2T33 /// OR2T8 (11738714_s_at) / Fold change /veh OR2T12 /// OR2T33 /// OR2T8 (11738714_s_at) / RFU VCAN (11748164_a_at) / Fold change /veh VCAN (11748164_a_at) / RFU JSRP1 (11732532_at) / Fold change /veh JSRP1 (11732532_at) / RFU KRTAP10-11 (11738290_x_at) / Fold change /veh KRTAP10-11 (11738290_x_at) / RFU MYO3A (11730013_a_at) / Fold change /veh MYO3A (11730013_a_at) / RFU EBF3 (11725865_a_at) / Fold change /veh EBF3 (11725865_a_at) / RFU CAMK2N1 (11719241_x_at) / Fold change /veh CAMK2N1 (11719241_x_at) / RFU C5orf56 (11738088_a_at) / Fold change /veh C5orf56 (11738088_a_at) / RFU OLFML3 (11715873_a_at) / Fold change /veh OLFML3 (11715873_a_at) / RFU LOC100653217 /// NTM (11731650_a_at) / Fold change /veh LOC100653217 /// NTM (11731650_a_at) / RFU MAPK11 (11762145_a_at) / Fold change /veh MAPK11 (11762145_a_at) / RFU FIZ1 (11724087_x_at) / Fold change /veh FIZ1 (11724087_x_at) / RFU OASL (11726364_x_at) / Fold change /veh OASL (11726364_x_at) / RFU SOX15 (11748057_x_at) / Fold change /veh SOX15 (11748057_x_at) / RFU CD79A (11719716_a_at) / Fold change /veh CD79A (11719716_a_at) / RFU HIST1H1D (11736915_at) / Fold change /veh HIST1H1D (11736915_at) / RFU CASKIN2 (11723855_a_at) / Fold change /veh CASKIN2 (11723855_a_at) / RFU LOC730098 (11760151_x_at) / Fold change /veh LOC730098 (11760151_x_at) / RFU OR4N2 (11742367_at) / Fold change /veh OR4N2 (11742367_at) / RFU PRRT2 (11749266_a_at) / Fold change /veh PRRT2 (11749266_a_at) / RFU SNX32 (11753110_a_at) / Fold change /veh SNX32 (11753110_a_at) / RFU CDHR5 (11726645_a_at) / Fold change /veh CDHR5 (11726645_a_at) / RFU RCAN1 (11760418_a_at) / Fold change /veh RCAN1 (11760418_a_at) / RFU FAM167A (11723789_a_at) / Fold change /veh FAM167A (11723789_a_at) / RFU FAM26E (11764081_at) / Fold change /veh FAM26E (11764081_at) / RFU ISYNA1 (11749810_s_at) / Fold change /veh ISYNA1 (11749810_s_at) / RFU ACY1 (11761880_at) / Fold change /veh ACY1 (11761880_at) / RFU 11764098_at / Fold change /veh 11764098_at / RFU SAMD14 (11745864_x_at) / Fold change /veh SAMD14 (11745864_x_at) / RFU NPB (11741838_a_at) / Fold change /veh NPB (11741838_a_at) / RFU TMPRSS6 (11731388_a_at) / Fold change /veh TMPRSS6 (11731388_a_at) / RFU KRTAP10-2 (11738614_at) / Fold change /veh KRTAP10-2 (11738614_at) / RFU ARHGAP8 /// PRR5-ARHGAP8 (11727945_x_at) / Fold change /veh ARHGAP8 /// PRR5-ARHGAP8 (11727945_x_at) / RFU KRTAP5-7 /// NADSYN1 (11734609_at) / Fold change /veh KRTAP5-7 /// NADSYN1 (11734609_at) / RFU RASL12 (11751679_a_at) / Fold change /veh RASL12 (11751679_a_at) / RFU CDKN2B (11736163_a_at) / Fold change /veh CDKN2B (11736163_a_at) / RFU PRF1 (11729649_at) / Fold change /veh PRF1 (11729649_at) / RFU, ZNF638 /// ZNF638-IT1 / Fold change vs veh, ZNF638 /// ZNF638-IT1 / RFU, PANK3 / Fold change vs veh, PANK3 / RFU, SH3YL1 / Fold change vs veh, SH3YL1 / RFU, ZEB2 / Fold change vs veh, ZEB2 / RFU, NRIP1 / Fold change vs veh, NRIP1 / RFU, PTTG1IP / Fold change vs veh, PTTG1IP / RFU, CAPN2 / Fold change vs veh, CAPN2 / RFU, MED14 / Fold change vs veh, MED14 / RFU, SNORA58 / Fold change vs veh, SNORA58 / RFU, C1orf63 / Fold change vs veh, C1orf63 / RFU, LRRFIP1 / Fold change vs veh, LRRFIP1 / RFU, NDUFAF7 / Fold change vs veh, NDUFAF7 / RFU, SLC12A2 / Fold change vs veh, SLC12A2 / RFU, IBTK / Fold change vs veh, IBTK / RFU, ESF1 / Fold change vs veh, ESF1 / Fold change vs veh, TMEM50B / RFU, TAOK1 / Fold change vs veh, TAOK1 / RFU, ACBD3 / Fold change vs veh, ACBD3 / RFU, TMA16 / Fold change vs veh, TMA16 / RFU, RWDD3 / Fold change vs veh, RWDD3 / RFU, BCAT1 / Fold change vs veh, BCAT1 / RFU, EDEM3 / Fold change vs veh, EDEM3 / RFU, TMEM33 / Fold change vs veh, TMEM33 / RFU, WDR75 / Fold change vs veh, WDR75 / RFU, AHCTF1 / Fold change vs veh, AHCTF1 / RFU, TFRC / Fold change vs veh, TFRC / RFU, ZDHHC17 / Fold change vs veh, ZDHHC17 / RFU, NOM1 / Fold change vs veh, NOM1 / RFU, ARL8B / Fold change vs veh, ARL8B / RFU, ZBTB11 / Fold change vs veh, ZBTB11 / RFU, TAMM41 / Fold change vs veh, TAMM41 / RFU, KIAA1704 /// LOC100996395 / Fold change vs veh, KIAA1704 /// LOC100996395 / RFU, ING1 / Fold change vs veh, ING1 / RFU, TRMT61B / Fold change vs veh, TRMT61B / RFU, FUBP3 / Fold change vs veh, FUBP3 / RFU, TP53 / Fold change vs veh, TP53 / RFU, TNKS2 / Fold change vs veh, TNKS2 / RFU, ZFP14 / Fold change vs veh, ZFP14 / RFU, ACTR2 / Fold change vs veh, ACTR2 / RFU, PPP3R1 / Fold change vs veh, PPP3R1 / RFU, PIK3R1 / Fold change vs veh, PIK3R1 / RFU, HNRNPA1 / Fold change vs veh, HNRNPA1 / RFU, RNF170 / Fold change vs veh, RNF170 / RFU, ZNF28 / Fold change vs veh, ZNF28 / RFU, RNGTT / Fold change vs veh, RNGTT / RFU, OGT / Fold change vs veh, OGT / RFU, BRD1 / Fold change vs veh, BRD1 / RFU, MARS / Fold change vs veh, MARS / RFU, ZNF655 / Fold change vs veh, ZNF655 / RFU, FAHD1 / Fold change vs veh, FAHD1 / RFU, BDP1 / Fold change vs veh, BDP1 / RFU, LRRCC1 / Fold change vs veh, LRRCC1 / RFU, ARID1A / Fold change vs veh, ARID1A / RFU, ZNF146 / Fold change vs veh, ZNF146 / RFU, ZNF330 / Fold change vs veh, ZNF330 / RFU, GPN3 / Fold change vs veh, GPN3 / RFU, C9orf123 / Fold change vs veh, C9orf123 / RFU, N4BP2L2 / Fold change vs veh, N4BP2L2 / RFU, ARFIP1 / Fold change vs veh, ARFIP1 / RFU, FAM179B / Fold change vs veh, FAM179B / RFU, BCL10 / Fold change vs veh, BCL10 / RFU, UHRF1BP1L / Fold change vs veh, UHRF1BP1L / RFU, BET1 / Fold change vs veh, BET1 / RFU, CNOT2 / Fold change vs veh, CNOT2 / RFU, ZNF268 / Fold change vs veh, ZNF268 / Fold change vs veh, ZNF507 / RFU, DGCR2 / Fold change vs veh, DGCR2 / RFU, WDSUB1 / Fold change vs veh, WDSUB1 / Fold change vs veh, HSP90B1 /// MIR3652 / RFU, ADSS / Fold change vs veh, ADSS / RFU, GK / Fold change vs veh, GK / RFU, ZNF148 / Fold change vs veh, ZNF148 / RFU, TAF9 / Fold change vs veh, TAF9 / RFU, SLC1A5 / Fold change vs veh, SLC1A5 / RFU, SLMO2 / Fold change vs veh, SLMO2 / RFU, ABCC4 / Fold change vs veh, ABCC4 / RFU, LOC101060439 /// RAP1B / Fold change vs veh, LOC101060439 /// RAP1B / RFU, RFX7 / Fold change vs veh, RFX7 / RFU, GTPBP10 / Fold change vs veh, GTPBP10 / RFU, CNEP1R1 / Fold change vs veh, CNEP1R1 / RFU, BIVM-ERCC5 /// ERCC5 / Fold change vs veh, BIVM-ERCC5 /// ERCC5 / RFU, ILF3 / Fold change vs veh, ILF3 / RFU 11762660_at / Fold change /veh 11762660_at / RFU VCAN (11757783_s_at) / Fold change /veh VCAN (11757783_s_at) / RFU DDX43 (11728927_at) / Fold change /veh DDX43 (11728927_at) / RFU KRT8 (11758188_x_at) / Fold change /veh KRT8 (11758188_x_at) / RFU NKD1 (11759106_at) / Fold change /veh NKD1 (11759106_at) / RFU SRD5A1 (11742802_a_at) / Fold change /veh SRD5A1 (11742802_a_at) / RFU TPSAB1 /// TPSB2 (11721975_s_at) / Fold change /veh TPSAB1 /// TPSB2 (11721975_s_at) / RFU GSTM3 (11746129_a_at) / Fold change /veh GSTM3 (11746129_a_at) / RFU IL23R (11737362_x_at) / Fold change /veh IL23R (11737362_x_at) / RFU TMEM51 (11727254_a_at) / Fold change /veh TMEM51 (11727254_a_at) / RFU PIWIL2 (11732686_x_at) / Fold change /veh PIWIL2 (11732686_x_at) / RFU ORM1 (11744905_x_at) / Fold change /veh ORM1 (11744905_x_at) / RFU CCDC152 (11743942_at) / Fold change /veh CCDC152 (11743942_at) / RFU ECM1 (11717891_a_at) / Fold change /veh ECM1 (11717891_a_at) / RFU IL23R (11748794_a_at) / Fold change /veh IL23R (11748794_a_at) / RFU TNFAIP8L3 (11732012_x_at) / Fold change /veh TNFAIP8L3 (11732012_x_at) / RFU MBOAT4 (11741988_at) / Fold change /veh MBOAT4 (11741988_at) / RFU 11764193_at / Fold change /veh 11764193_at / RFU TMEM53 (11763286_at) / Fold change /veh TMEM53 (11763286_at) / RFU MAGEB2 (11727129_at) / Fold change /veh MAGEB2 (11727129_at) / RFU TMEM200A (11744735_a_at) / Fold change /veh TMEM200A (11744735_a_at) / RFU CCDC152 (11751479_a_at) / Fold change /veh CCDC152 (11751479_a_at) / RFU FAM211A (11726209_a_at) / Fold change /veh FAM211A (11726209_a_at) / RFU RGS16 (11746705_a_at) / Fold change /veh RGS16 (11746705_a_at) / RFU VCAN (11755009_s_at) / Fold change /veh VCAN (11755009_s_at) / RFU RHOB (11743442_s_at) / Fold change /veh RHOB (11743442_s_at) / RFU RGS16 (11720943_a_at) / Fold change /veh RGS16 (11720943_a_at) / RFU RGS16 (11720944_at) / Fold change /veh RGS16 (11720944_at) / RFU, VPS4B / Fold change vs veh, VPS4B / RFU, CREB1 / Fold change vs veh, CREB1 / RFU, DNAJC13 / Fold change vs veh, DNAJC13 / RFU, GNAQ / Fold change vs veh, GNAQ / RFU, CDK5R1 / Fold change vs veh, CDK5R1 / RFU, ZRANB3 / Fold change vs veh, ZRANB3 / RFU, CUL4A / Fold change vs veh, CUL4A / RFU, CCNY / Fold change vs veh, CCNY / RFU, UFL1 / Fold change vs veh, UFL1 / RFU, COG3 / Fold change vs veh, COG3 / RFU, DIAPH2 / Fold change vs veh, DIAPH2 / RFU, SKA2 / Fold change vs veh, SKA2 / RFU, AFF3 / Fold change vs veh, AFF3 / RFU, LMF1 / Fold change vs veh, LMF1 / RFU, IPO11 / Fold change vs veh, IPO11 / RFU, DFFB / Fold change vs veh, DFFB / RFU, FOXP1 / Fold change vs veh, FOXP1 / RFU, CARD8 / Fold change vs veh, CARD8 / RFU, STRN3 / Fold change vs veh, STRN3 / RFU, ADK / Fold change vs veh, ADK / RFU, RASSF2 / Fold change vs veh, RASSF2 / RFU, WIPF1 / Fold change vs veh, WIPF1 / RFU, LARP1B / Fold change vs veh, LARP1B / RFU, RASA1 / Fold change vs veh, RASA1 / RFU, RB1 / Fold change vs veh, RB1 / RFU, PPFIA1 / Fold change vs veh, PPFIA1 / RFU, MAT2A / Fold change vs veh, MAT2A / RFU, CCT5 / Fold change vs veh, CCT5 / RFU, WDR92 / Fold change vs veh, WDR92 / RFU, CUX1 / Fold change vs veh, CUX1 / RFU, TTC7A / Fold change vs veh, TTC7A / RFU, TMEM135 / Fold change vs veh, TMEM135 / RFU, DEPTOR / Fold change vs veh, DEPTOR / RFU, CPM / Fold change vs veh, CPM / RFU, DNAJB6 / Fold change vs veh, DNAJB6 / RFU, CACNA2D3 / Fold change vs veh, CACNA2D3 / RFU, DTX4 / Fold change vs veh, DTX4 / RFU, TFCP2 / Fold change vs veh, TFCP2 / RFU, GMCL1 /// GMCL1P1 / Fold change vs veh, GMCL1 /// GMCL1P1 / RFU, AEBP2 / Fold change vs veh, AEBP2 / RFU, SNHG1 /// SNORD22 /// SNORD25 /// SNORD26 /// SNORD27 /// SNORD28 /// SNORD29 /// SNORD31 / Fold change vs veh, SNHG1 /// SNORD22 /// SNORD25 /// SNORD26 /// SNORD27 /// SNORD28 /// SNORD29 /// SNORD31 / Fold change (Aza/veh), C12orf56 (ProbeSet 11735607_a_at) / Fold change (ACY-1035/veh), C12orf56 (ProbeSet 11735607_a_at) / Fold change (Aza/veh), FGFR1OP (ProbeSet 11751329_s_at) / Fold change (ACY-1035/veh), FGFR1OP (ProbeSet 11751329_s_at) / Fold change (Aza/veh), VPS36 (ProbeSet 11739960_a_at) / Fold change (ACY-1035/veh), VPS36 (ProbeSet 11739960_a_at) / RFU SYPL1 (11715823_x_at) / Fold change /veh SYPL1 (11715823_x_at) / RFU IGFBP7 (11715501_s_at) / Fold change /veh IGFBP7 (11715501_s_at) / RFU REEP3 (11722064_at) / Fold change /veh REEP3 (11722064_at) / RFU IGLL1 (11728026_x_at) / Fold change /veh IGLL1 (11728026_x_at): dose or concentration left out as unconfirmed. Conditions: ProbeSet 11725885_a_at; LIST B.

For the compound `Nc1ccc(-c2cccs2)cc1NC(=O)c1ccc2c(c1)cc(C1CC1)n2CCN1CCOCC1` [ACY-1035], the “RFU, CNEP1R1” value turned out to be 81.80 RFU.
